Source: patent US20250387311A1, “SCLAREOL OR SCLAREOLIDE FOR IMPROVING SCALP CONDITIONS AND HAIR GROWTH” (ISP Investments LLC, priority 2022, published 2025)

Key:
Malassezia furfur = test: Anti-fungal efficacy, germ count reduction; format: cell-based; details: 0.12%
Procedure: Assay of the anti-fungal efficacy of zinc pyrithione, piroctone, climbazole and sclareolide on Malassezia furfur was assayed.

Malassezia restricta = test: Broth microdilution (MIC) assay, resazurin fluorescence; format: cell-based
Procedure: Sclareolide antifungal potential on Malassezia restricta was evaluated by the broth microdilution method.
Method: Malassezia restricta was routinely grown on modified Leeman-Notman (mLN) agar. The broth microdilution assay was performed following EUCAST guidelines (www.eucast.org) with slight modifications. Between five and ten colonies were suspended in a modified RPMI 1640 media supplemented with resazurin at a D.O (Density Optical) of 0.1. In a 96 well plate, serial dilutions of sclareolide (0.00023% to 0.12%), zinc pyrithione (0.015%-0.0023%) and Ketoconazol (0.5-0.015 μg/ml) were prepared in modified RPMI 1640. An equal volume of Malassezia restricta inoculum was added to the test samples at different concentrations. Following 48 h-60 h of incubation at 34° C., resazurin fluorescence was analyzed at 530 nm and 590 nm.
Results are presented as relative fluorescence intensity compared to DMSO control. the MIC is defined as the lowest drug concentration that inhibited growth.

[1] = Solubility in surfactant solution (12% Sodium laureth sulfate/2% Cocamidopropyl betaine); format: physicochemical; details: 12% Sodium laureth sulfate (SLES)/2% Cocamidopropyl betaine (CAPB), 1 hour stirring
total lipids = test: Total lipid content in ex vivo scalp skin biopsies (Nile Red staining); format: cell-based, human; details: 0.12%
Procedure: (§1) Method: CYP27B1 was assessed by immunohistochemistry with a specific antibody. Biopsies of healthy human scalp skin in culture were treated with sclareolide diluted at 0.12% in placebo (ceraphyl 368 (Ashland) applied once a day for 48 hours topically (20 μl/biopsy). Control biopsies received only ceraphyl 368. The immunostaining was performed using paraffin sections incubated in the presence of anti-CYP27B1 antibody (rabbit monoclonal, Abcam). After an hour and a half of incubation followed by rinses, the sections were incubated in the presence of the secondary anti-rabbit antibody coupled with a fluorophore (Alexa Fluor® 488, Invitrogen). The sections were then examined under a fluorescence microscope (Nikon Eclipse Ni-E microscope). CYP27B1 expression was then observed (using NiS-AR Nikon acquisition software) and quantified by image analysis (Volocity® image analysis software, Improvision).
Method: total lipids were assessed by fluorescent staining by using the fluorescent dye Nile Red. The treatment of the biopsies was the same than in example 4. […] The sections were then examined under a fluorescence microscope (Nikon Eclipse Ni-E microscope). Red fluorescence was then observed (using NiS-AR Nikon acquisition software) and quantified by image analysis (Volocity® image analysis software, Improvision).

keratin 10 = test: Keratin 10 expression in ex vivo scalp skin biopsies (immunohistochemistry); format: cell-based, human; details: 0.12%
Procedure: as §1
Method: Keratin 10 was assessed by immunohistochemistry. The protocol was the same as in example 4 with the use of anti-keratin 10 antibody (rabbit monoclonal, Abcam).

[2] = tested on: Escherichia coli ATCC 25922; details: cited from earlier work
CYP27B1 = CYP27B1 expression in ex vivo scalp skin biopsies (immunohistochemistry); format: cell-based, human
Procedure: as §1

[3] = tested on: Staphylococcus aureus ATCC 25923; details: cited from earlier work
[4] = tested on: Enterococcus faecalis ATCC 29212; details: cited from earlier work
[5] = tested on: Pseudomonas aeruginosa ATCC 27950; details: cited from earlier work
[6] = 48 h-60 h incubation at 34° C., vs DMSO control

CC(C)(C)C(=O)C(Oc1ccc(Cl)cc1)n1ccnc1 (stereo not shown) [Climbazole, climbazole]
Reduction % (6 h) (Malassezia furfur): 38.5%
Reduction % (24 h) (Malassezia furfur): 33.80%

zinc pyrithione [ZPT]
inhibition of Malassezia restricta (Malassezia restricta; tested in parallel at the same concentrations): high inhibition
Reduction % (6 h) (Malassezia furfur): 47.4%
Reduction % (24 h) (Malassezia furfur): 93.10%

CC1(C)CCC[C@]2(C)[C@H]3CC(=O)O[C@]3(C)CC[C@@H]12 [sclareolide, Sclareolide]
concentration at which growth of Malassezia restricta was completely inhibited (MIC) (Malassezia restricta; [6]): 0.12%
concentration from which growth of Malassezia restricta was significantly inhibited (Malassezia restricta; [6]): 0.001875%
dissolution in surfactant solution [1]: could not be dissolved
Reduction % (6 h) (Malassezia furfur): 38.5%
Reduction % (24 h) (Malassezia furfur): 32.40%
increase in lipid labelling intensity (total lipids; 48-hour treatment, compared to placebo, significant): +46%
Total lipid content (% placebo) (total lipids; 48 hours, placebo = 100%): 146%
increase in keratin 10 labelling intensity (keratin 10; 48-hour treatment, compared to placebo, highly significant): +20%
Keratin 10 expression (% placebo) (keratin 10; 48 hours, placebo = 100%): 120%
antibacterial activity [2]: good antibacterial activity
CYP27B1 protein expression (% placebo) (CYP27B1; 0.12% in ceraphyl 368, topical once a day, 48 hours, placebo = 100%): 138%
increase in CYP27B1 labelling intensity (CYP27B1; 0.12%, 48-hour treatment, compared to placebo, very significant): +38%
antibacterial activity [3]: good antibacterial activity
antibacterial activity [4]: good antibacterial activity
antibacterial activity [5]: good antibacterial activity

Cc1cc(CC(C)CC(C)(C)C)n(O)c(=O)c1 (stereo not shown) [OCT, piroctone]
Reduction % (6 h) (Malassezia furfur): 15.4%
Reduction % (24 h) (Malassezia furfur): 35.30%
